The structures appear in SMILES notation.

Melting point data for five molecules are collected here from patent publication US20060074083A1, “Cyclic and acyclic propenones for treating CNS disorders” (MERZ PHARMA GMBH & CO. KGAA, priority 2004, published 2006).

A word on the melting point: it is the temperature, or range, at which the solid turns liquid. On to `COc1cc(/C=C/C(=O)C23CC4CC(CC(C4)C2)C3)cc(OC)c1` [Example 4, 1-Adamantan-1-yl-3-(3,5-dimethoxy-phenyl)-propenone], for which the melting point lay within 118 to 119 °C.

With `O=C(/C=C/c1cnc2ccccc2c1)C1CC1` [Example 5, 1-Cyclopropyl-3-quinolin-3-yl-propenone], the melting point was in the range of 101 to 102 °C.

As to `O=C(/C=C/c1cnc2ccccc2c1)C12CC3CC(CC(C3)C1)C2` [Example 7, 1-Adamantan-1-yl-3-quinolin-3-yl-propenone], the melting point lay within 169 to 171 °C.

Molecule `COc1ccc(/C=C/C(=O)C23CC4CC(CC(C4)C2)C3)cc1C` [Example 10, 1-Adamantan-1-yl-3-(4-methoxy-3-methyl-phenyl)-propenone] came in with a melting point of 138 to 140 °C.

The molecule `O=C(/C=C/c1ccc2c(c1)OCCO2)C12CC3CC(CC(C3)C1)C2` [Example 11, 1-Adamantan-1-yl-3-(2,3-dihydrobenzo[1,4]dioxin-6-yl)-propenone] had a melting point of 125 to 127 °C.
